Here are results for four compounds from patent US8097617B2, “Organic compounds” (Novartis AG, priority 2006, dated 2012).

For orientation: IC50 means the concentration that inhibits the measured activity by half.

For this experiment, the target named is T1, human DPP-IV (Homo sapiens, UniProt P27487).
T1 construct: Human DPP-IV consisting of amino acids 39 to 766 followed by a C-terminal Streptavidin-tag; Streptavidin-tag (C); made in house
T1 sequence (P27487 39-766): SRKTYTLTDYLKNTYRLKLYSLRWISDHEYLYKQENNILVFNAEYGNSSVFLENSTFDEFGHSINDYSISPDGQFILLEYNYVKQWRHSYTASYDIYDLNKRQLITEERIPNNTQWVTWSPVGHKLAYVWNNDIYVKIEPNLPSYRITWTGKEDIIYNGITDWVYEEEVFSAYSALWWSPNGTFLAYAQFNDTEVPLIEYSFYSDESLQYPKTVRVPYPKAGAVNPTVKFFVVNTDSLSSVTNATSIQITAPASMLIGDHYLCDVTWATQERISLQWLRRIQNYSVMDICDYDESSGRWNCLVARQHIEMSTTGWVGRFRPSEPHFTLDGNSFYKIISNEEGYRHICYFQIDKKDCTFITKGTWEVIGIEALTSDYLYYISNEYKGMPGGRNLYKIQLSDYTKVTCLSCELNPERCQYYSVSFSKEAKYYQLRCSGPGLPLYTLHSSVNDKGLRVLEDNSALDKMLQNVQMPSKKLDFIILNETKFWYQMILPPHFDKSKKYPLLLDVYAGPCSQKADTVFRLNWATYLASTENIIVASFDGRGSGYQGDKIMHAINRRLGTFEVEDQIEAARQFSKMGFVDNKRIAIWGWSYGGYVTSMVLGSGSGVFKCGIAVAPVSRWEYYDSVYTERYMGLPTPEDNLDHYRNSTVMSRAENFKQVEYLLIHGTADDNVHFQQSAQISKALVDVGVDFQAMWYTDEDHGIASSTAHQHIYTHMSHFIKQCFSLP
In words: DPP-IV inhibitory activity assay, fluorogenic substrate H-Gly-Pro-AMC. It is filed as biochemical. The settings on record: recombinant human DPP-IV (aa 39-766), substrate H-Gly-Pro-AMC 10 μM, room temperature, 1 hour; read-out: IC50 (inhibitory activity to human DPP-4). How it is done: Some of Compounds 1 to 40 were tested for their inhibitory activity to human DPP-IV.
Human DPP-IV consisting of amino acids 39 to 766 followed by a C-terminal Streptavidin-tag was expressed using the baculovirus system and purified to >80% purity. The enzyme was stored in 25 mM Tris buffer, pH 9.0, containing 300 mM NaCl at −80° C.
The fluorogenic substrates H-Gly-Pro-AMC was purchased from Bachem AG (Bubendorf, Switzerland). The substrate was kept as a 5 mM stock solution in DMSO at −20° C. All other chemicals were purchased from Sigma (Buchs, Switzerland).
The assay buffer for the DPP-IV reaction was 25 mM Tris/HCl, pH 7.5, containing 140 mM NaCl, 10 mM KCl and 0.05% (w/v) CHAPS.
The test compounds were dissolved in 90% DMSO/10% H2O (v/v). Serial dilutions of the compounds from 3 mM to 0.03 μM in 90% DMSO/10% H2O (v/v) followed by a 1:33.3 dilution in assay buffer was done in 96-well polypropylene plates using a CyBio Dilus 8-channel pipettor (CyBio AG, Jena, Germany) with tip change after each pipetting step. The compound solutions as well as the substrate and the enzyme solutions were transferred to the assay plates (384-well black Cliniplate; cat. no. 95040020 Labsystems Oy, Finland) by means of a CyBi-Well 96-channel pipettor (CyBio AG, Jena, Germany).
Enzyme kinetics were measured by mixing 10 μl of a 3-fold concentrated substrate solution in assay buffer (final substrate concentration was 10 μM) with 10 μl of the corresponding compound solution. The reactions were initiated by addition of 10 μl of a 3-fold concentrated solution of the enzyme in assay buffer. Final enzyme (active site) concentrations in the assay was […] for DPP-IV. Fluorescence product (AMC) formation was monitored for 1 hour at room temperature at 35 second intervals by measuring the fluorescence emission at 500 nm using an exitation wavelength of 350 nm in a TECAN Ultra fluorescence reader (TECAN, Maennedorf, Switzerland). The fluorescence in each well was excited by one flash per measurement. The Origin software package (Origin 7.5 Mircocal, Northampton, Mass., USA) was used to generate all graphs and to perform the IC50 calculations.
As for `NCc1cc2ncc(-c3ccc(F)c(F)c3)n2cc1-c1ccc(Cl)cc1Cl` [Compound 4d, C-[6-(2,4-Dichloro-phenyl)-3-(3,4-difluoro-phenyl)-imidazo[1,2-a]pyridin-7-yl]-methylamine], the IC50 was 23 nM.

`COCCN(C)c1cnc2cc(CN)c(-c3ccc(Cl)cc3Cl)cn12` [Compound 7, [7-Aminomethyl-6-(2,4-dichloro-phenyl)-imidazo[1,2-a]pyridin-3-yl]-(2-methoxy-ethyl)-methyl-amine]: the half-inhibitory concentration (IC50) is 23 nM.

Consider `CN1CCC(C(=O)Nc2nnc3cc(CN)c(-c4ccc(Cl)cc4Cl)cn23)CC1` [Compound 18b, 1-Methyl-piperidine-4-carboxylic acid [7-aminomethyl-6-(2,4-dichloro-phenyl)-[1,2,4]triazolo[4,3-a]pyridin-3-yl]-amide], for which the IC50 worked out at 25 nM.

For the compound `NCc1cc2ncc(C(=O)N3CCOCC3)n2cc1-c1ccc(Cl)cc1Cl` [Compound 27a, [7-Aminomethyl-6-(2,4-dichloro-phenyl)-imidazo[1,2-a]pyridin-3-yl]-morpholin-4-yl-methanone], the IC50 is 22 nM.
